Source: patent US20060240048A1 (priority 2002, published 2006)

Target: T1, human cannabinoid CB2 receptor (Homo sapiens, UniProt P34972)
T1 construct: expressed in transfected cells; host or cells: Saccharomyces cerevisiae strain MMY23
Assay: Cannabinoid CB2 receptor agonist activity, yeast reporter assay (FDGlu fluorescence);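 for Emax: 100% equals maximal response of reference agonist HU210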
Assay type: cell-based
Conditions: for Emax: read-out: efficacy value (Emax) at the cloned human cannabinoid CB2 receptor

T1 sequence (P34972 whole entry): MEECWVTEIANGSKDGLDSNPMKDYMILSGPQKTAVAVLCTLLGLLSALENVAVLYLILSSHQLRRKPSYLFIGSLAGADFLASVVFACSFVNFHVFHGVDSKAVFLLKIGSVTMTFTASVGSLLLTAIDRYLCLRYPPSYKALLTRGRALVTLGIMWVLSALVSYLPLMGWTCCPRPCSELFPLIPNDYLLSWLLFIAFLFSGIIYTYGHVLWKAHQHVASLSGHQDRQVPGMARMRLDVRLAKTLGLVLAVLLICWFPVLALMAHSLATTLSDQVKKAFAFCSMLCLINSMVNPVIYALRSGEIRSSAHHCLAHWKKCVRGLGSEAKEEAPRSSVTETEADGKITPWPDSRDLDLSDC

SMILES	EC50 [nM]	Emax [%]
CC(C)c1cc(Nc2ccc(C#N)c(Cl)c2)ncc1C(=O)NCC1CCCC1 [Example 247, 6-(3-Chloro-4-cyano-phenytamino)-N-cyclopentylmethyl-4-isopropyl-nicotinamide]	< 300	> 50
CC(C)c1cc(Nc2ccc(Br)cc2Cl)ncc1C(=O)NCC1CCCC1 [Example 248, 6-(4-bromo-2-chlorophenylamino)-N-cyclopentylmethyl-4-isopropyl-nicotinamide]	< 300	> 50
CC(C)c1cc(Nc2ccc(F)cc2F)ncc1C(=O)NCC1CCC1 [Example 249, N-Cyclobutylmethyl-6-(2,4-difluoro-phenylamino)-4-isopropyl-nicotinamide]	< 300	> 50
CC(C)c1cc(Nc2ccc(Cl)cc2Cl)ncc1C(=O)NCC1CCC1 [Example 250, N-Cyclobutylmethyl-6-(2,4-dichloro-phenylamino)-4-isopropyl-nicotinamide]	< 300	> 50
CC(C)c1cc(Nc2ccc(Cl)c(Cl)c2)ncc1C(=O)NCC1CCC1 [Example 251, N-Cyclobutylmethyl-6-(3,4-dichtoro-phenylamino)-4-isopropyl-nicotinamide]	< 300	> 50
CC(C)c1cc(Nc2cccc(Cl)c2Cl)ncc1C(=O)NCC1CCC1 [Example 252, N-Cyclobutylmethyl-6-(2,3-dichloro-phenylamino)-4-isopropyl-nicotinamide]	< 300	> 50
CC(C)c1cc(Nc2ccc(F)cc2Cl)ncc1C(=O)NCC1CCC1 [Example 253, 6-(2-Chloro-4-fluoro-phenylamino)-N-cyclobutylmethyl-4-isopropyl-nicotinamide]	< 300	> 50
CC(C)c1cc(Nc2ccc(F)c(Cl)c2)ncc1C(=O)NCC1CCC1 [Example 254, 6-(3-Chloro-4-fluoro-phenylamino)-N-cyclobutylmethyl-4-isopropyl-nicotinamide]	< 300	> 50
CC(C)c1cc(Nc2ccc(Br)cc2Cl)ncc1C(=O)NCC1CCC1 [Example 255, 6-(4-Bromo-2-chloro-phenylamino)-N-cyclobutylmethyl-4-isopropyl-nicotinamide]	< 300	> 50
CC(C)c1cc(Nc2ccc(Cl)cc2Br)ncc1C(=O)NCC1CCC1 [Example 256, 6-(2-Bromo-4-chloro-phenylamino)-N-cyclobutylmethyl-4-isopropyl-nicotinamide]	< 300	> 50
CC(C)c1cc(Nc2cccc(C(F)(F)F)c2F)ncc1C(=O)NCC1CCC1 [Example 257, N-cyclobutylmethyl-6-(2-fluoro-3-trifluoromethyl-phenylamino)-4-isopropyl-nicotinamide]	< 300	> 50
Cc1cc(Cl)ccc1Nc1cc(C(C)C)c(C(=O)NCC2CCC2)cn1 [Example 258, 6-(4-Chloro-2-methyl-phenylamino)-N-cyclobutylmethyl-4-isopropyl-nicotinamide]	< 300	> 50
CC(C)c1cc(Nc2ccc(C#N)cc2Cl)ncc1C(=O)NCC1CCC1 [Example 259, 6-(2-Chloro-4-cyano-phenylamino)-N-cyclobutylmethyl-4-isopropyl-nicotinamide]	< 300	> 50
CC(C)c1cc(Nc2ccc(C#N)cc2F)ncc1C(=O)NCC1CCC1 [Example 260, 6-(4-Cyano-2-fluoro-phenylamino)-N-cyclobutylmethyl-4-isopropyl-nicotinamide]	< 300	> 50
Cc1cc(C#N)ccc1Nc1cc(C(C)C)c(C(=O)NCC2CCC2)cn1 [Example 261, 6-(4-Cyano-2-methyl-phenylamino)-N-cyclobutylmethyl-4-isopropyl-nicotinamide]	< 300	> 50
CC(C)c1cc(Nc2ccc(C(F)(F)F)cc2Cl)ncc1C(=O)NCC1CCC1 [Example 262, 6-(2-Chloro-4-trifluoromethyl-phenylamino)-N-cyclobutylmethyl-4-isopropyl-nicotinamide]	< 300	> 50
CC(C)c1cc(Nc2cc(Cl)cc(Cl)c2)ncc1C(=O)NCC1CCC1 [Example 263, N-Cyclobutylmethyl-6-(3,5-dichloro-phenylamino)-4-isopropyl-nicotinamide]	< 300	> 50
CC(C)c1cc(Nc2cc(Cl)ccc2Cl)ncc1C(=O)NCC1CCC1 [Example 264, N-Cyclobutylmethyl-6-(2,5-dichloro-phenylamino)-4-isopropyl-nicotinamide]	< 300	> 50
CC(C)c1cc(Nc2cc(F)cc(F)c2)ncc1C(=O)NCC1CCC1 [Example 265, N-Cyclobutylmethyl-6-(3,5-difluoro-phenylamino)-4-isopropyl-nicotinamide]	< 300	> 50
CC(C)c1cc(Nc2cc(Cl)ccc2F)ncc1C(=O)NCC1CCC1 [Example 266, 6-(5-Chloro-2-fluoro-phenylamino)-N-cyclobutylmethyl-4-isopropyl-nicotinamide]	< 300	> 50

SMILES	EC50 [nM]	Emax [%]
CC(C)c1cc(Nc2cc(F)ccc2Cl)ncc1C(=O)NCC1CCC1 [Example 267, 6-(2-Chloro-5-fluoro-phenylamino)-N-cyclobutytmethyl-4-isopropyl-nicotinamide]	< 300	> 50
CC(C)CNC(=O)c1cnc(Nc2cccc(Cl)c2)cc1C(C)C [Example 268, 6-(3-Chloro-phenylamino)-N-isobutyl-4-isopropyl-nicotinamide]		> 50
CC(C)CNC(=O)c1cnc(Nc2cccc(C(F)(F)F)c2)cc1C(C)C [Example 269, N-Isobutyl-4-isopropyl-6-(3-trifluoromethyl-phenylamlno)-nicotinamide]	< 300	> 50
CC(C)CNC(=O)c1cnc(Nc2ccc(Cl)c(Cl)c2)cc1C(C)C [Example 270, 6-(3,4-Dichloro-phenylamino)-N-isobutyl-4-isopropyl-nicotinamide]	< 300	> 50
CC(C)CNC(=O)c1cnc(Nc2cccc(C(F)(F)F)c2F)cc1C(C)C [Example 271, 6-(2-Fluoro-3-trifluoromethyl-phenylamino)-N-isobutyl-4-isopropyl-nicotinamide]	< 300	> 50
Cc1c(Br)cccc1Nc1cc(C(C)C)c(C(=O)NCC(C)C)cn1 [Example 272, 6-(3-Bromo-2-methyl-phenylamino)-N-isobutyl-4-isopropyl-nicotinamide]	< 300	> 50
CC(C)CNC(=O)c1cnc(Nc2ccc(Cl)cc2Cl)cc1C(C)C [Example 273, 6-(2,4-Dichloro-phenylamtno)-N-isobutyl-4-isopropyl-nicotinamide]	< 300	> 50
CC(C)CNC(=O)c1cnc(Nc2cc(F)ccc2Cl)cc1C(C)C [Example 274, 6-(2-Chloro-5-fluoro-phenylamino)-N-isobutyl-4-isopropyl-nicotinamide]	< 300	> 50
CC(C)CNC(=O)c1cnc(Nc2cc(F)cc(F)c2)cc1C(C)C [Example 275, 6-(3,5-Difluoro-phenylamino)-N-isobutyl-4-isopropyl-nicotinamide]	< 300	> 50
CC(C)CNC(=O)c1cnc(Nc2cc(Cl)ccc2F)cc1C(C)C [Example 276, 6-(5-Chloro-2-fluoro-phenylamino)-N-isobutyl-4-isopropyl-nicotinamide]	< 300	> 50
CC(C)CNC(=O)c1cnc(Nc2cccc(Br)c2)cc1C(C)C [Example 277, 6-(3-Bromo-phenylamino)-N-isobutyl-4-isopropyl-nicotinamide]	< 300	> 50
CC(C)c1cc(Nc2ccc(Cl)cc2Cl)ncc1C(=O)NCC1CCS(=O)(=O)C1 (stereo not shown) [Example 278, 6-(2,4-Dichloro-phenylamino)-N-(1,1-dioxo-tetrahydro-1/^6-thiophen-3-ylmethyl)-4-isopropyl-nicotinamide]	< 300	> 50
CC(C)c1cc(Nc2ccc(Br)c(F)c2)ncc1C(=O)NCC1CCS(=O)(=O)C1 (stereo not shown) [Example 279, 6-(4-Bromo-3-fluoro-phenylamino)-N-(1,1-dioxo-tetrahydro-1/^6-thiophen-3-ylmethyl)-4-isopropyl-nicotinamide]	< 300	> 50
CC(C)c1cc(Nc2ccc(OC(F)(F)F)cc2Br)ncc1C(=O)NCC1CCC1 [Example 291, 6-(2-Bromo-4-trifluoromethoxy-phenylamino)-N-cyclobutylmethyl-4-isopropyl-nicotinamide]		> 50
CC(C)c1cc(Nc2ccc(C#N)cc2F)ncc1C(=O)NCC1CCCC1 [Example 293, 6-(4-Cyano-2-fluoro-phenylamino)-N-cyclopentylmethyl-4-isopropyl-nicotinamide]	< 300	> 50
CC(C)c1cc(Nc2ccc(Br)c(C(F)(F)F)c2)ncc1C(=O)NCC1CCOCC1 [Example 294, 6-(4-Bromo-3-trifluoromethyl-phenylamino)-4-isopropyl-N-(tetrahydropyran-4-ylmethyl)-nicotinamide]		> 50
CC(C)c1cc(Nc2ccc(F)c(C(F)(F)F)c2)ncc1C(=O)NCC1CCOCC1 [Example 295, 6-(4-Fluoro-3-trifluoromethyl-phenylamino)-4-isopropyl-N-(tetrahydropyran-4-ylmethyl)-nicotinamide]	< 300	> 50
CC(C)c1cc(Nc2ccc(Br)c(Br)c2)ncc1C(=O)NCC1CCOCC1 [Example 296, 6-(3,4-Dibromo-phenylamino)-4-isopropyl-N-(tetrahydropyran-4-ylmethyl)-nicotinamide]	< 300	> 50
CC(C)c1cc(Nc2ccc(Br)c(F)c2)ncc1C(=O)NCC1CCOCC1 [Example 297, 6-(4-Bromo-3-fluoro-phenylamino)-4-isopropyl-N-(tetrahydropyran-4-ylmethyl)-nicotinamide]	< 300	> 50
Cc1cccc(Nc2cc(C(C)C)c(C(=O)NCC3CCOCC3)cn2)c1C#N [Example 303, 6-(2-Cyano-3-methyl-phenylamino)-4-isopropyl-N-(tetrahydropyran-4-ylmethyl)-nicotinamide]		> 50
